Measurements published in EP4817613A1, “COMPOSITION FOR ERADICATING HELICOBACTER PYLORI COMPRISING ZASTAPRAZAN OR PHARMACEUTICALLY ACCEPTABLE SALT THEREOF” (Jeil Pharmaceutical Co., Ltd., priority 2023, dated 2025).

Assays:
[1] = tested on: patients with erosive gastroesophageal reflux disease; experiment: Phase 3 clinical trial: healing rate of mucosal breaks in H. pylori-positive subjects; assay type: in vivo, human
Protocol: H. pylori testing was performed by 13C-UBT, gastroscopy (Campylobacter-like organism test, CLO), or tissue biopsy to confirm H. pylori positivity/negativity. The testing was performed at the screening visit (Visit 1) or the randomization visit (Visit 2), and results from the same institution within 29 days prior to the randomization visit (Visit 2) could be substituted. Those who voluntarily agreed to participate in this clinical trial underwent a screening test through a screening visit, and only eligible subjects were allowed to participate in the clinical trial based on the inclusion/exclusion criteria. Eligible subjects were randomly assigned to the test group or control group and received the clinical trial drug according to the assigned group at the baseline visit (V2). […] [Table 10] The cumulative healing rate of mucosal breaks according to the presence or absence of H. pylori infection refers to the proportion of subjects whose mucosal breaks were healed by 4 weeks after the administration of the clinical trial drug on endoscopic examination. The frequency and percentage of healing rates of mucosal breaks at week 4 after the administration of the clinical trial drug were presented by administration group according to the presence or absence of H. pylori infection. The differences between the administration groups (test group-control group) were analyzed using the Cochran-Mantel-Haenszel method corrected with the baseline LA classification method as a stratification factor, and the 95% confidence intervals for the differences were presented.

[2] = tested on: patients with erosive gastroesophageal reflux disease; experiment: Phase 2 clinical trial, randomized, double-blind, active-controlled: healing of mucosal breaks and symptoms; assay type: in vivo, human; conditions: for overall healing rate, number of subjects whose mucosal breaks were completely healed / overall healing rate, proportion of subjects whose mucosal breaks were completely healed: H. pylori-positive and -negative groups together
Protocol: H. pylori testing was performed by 13C-urea breath test (13C-UBT), gastroscopy (Campylobacter-like organism test, CLO), or tissue biopsy to confirm H. pylori positivity/negativity. The testing was performed at the screening visit (Visit 1) or the randomization visit (Visit 2), and results from the same institution within 29 days prior to the randomization visit (Visit 2) could be substituted. This clinical trial was a randomized, double-blind, active-controlled, multicenter, phase 2 clinical trial targeting patients with erosive gastroesophageal reflux disease. After the subjects gave written consent to participate in the clinical trial, a screening test was conducted. When the subjects were taking drugs that could affect the gastric mucosa at the time of screening, an upper gastrointestinal endoscopy was performed after a 2-week drug-free period (a 4-week drug-free period for potassium-competitive acid blockers (P-CABs) or proton pump inhibitors (PPIs)). […] At this time, the subjects were stratified by grade (A, B, C, D) according to the LA classification system classified by upper gastrointestinal endoscopy. Randomly assigned subjects took the clinical trial drug once a day according to the assigned administration group for four weeks. After four weeks of administration of the clinical trial drug, the subjects visited the clinical trial institution to undergo an upper gastrointestinal endoscopy to assess whether they were healed. Healed subjects underwent a Safety Follow-Up (F/U) two weeks later, and unhealed subjects were administered the clinical trial drug for additional four weeks (a total of 8 weeks of administration) and visited the clinical trial institution to undergo an upper gastrointestinal endoscopy. […] Days of achieving complete remission (CR, disappearance of heartburn and acid reflux for seven days) after the administration of the clinical trial drug • D. Proportion of symptom-free days (heartburn, acid reflux, heartburn/acid reflux) for 4 and 8 weeks after the administration of the clinical trial drug (daytime, nighttime, daytime/nighttime) • ③ Changes in frequency and severity of major symptoms at week 4 and week 8 of the clinical trial drug administration compared to the gastroesophageal reflux disease questionnaire (RDQ) baseline • ④ Changes in total score at week 4 and week 8 of the clinical trial drug administration compared to the GERD Health-Related Quality of Life (GERD-HRQL) baseline The proportion of subjects whose erosions recovered to normal mucosa from the first administration of the clinical trial drug up to week 8 and the two-sided 95% confidence intervals were presented by administration group. […] Days of achieving CR (disappearance of heartburn and acid reflux for seven days) after the administration of the clinical trial drug: When the symptom score is 0 for seven consecutive days after the first administration of the clinical trial drug, it was defined as CR (disappearance of heartburn and acid reflux for seven days), and the event was based on the first CR. When there was no CR, the case was considered as censoring.

[3] = tested on: Helicobacter pylori SS1 (mouse colonizing strain); experiment: Antibiotic susceptibility testing by microdilution (MIC and MBC), CLSI guideline; assay type: cell-based; conditions: lowest concentration with no growth after spotting on antibiotic-free agar, Table 4 prints no unit (method concentrations in µg/mL)
Protocol: Helicobacter pylori SS1 (mouse colonizing strain): A strain known as Sydney strain. The strain is CagA-positive and VacA-positive and has been confirmed to infect and colonize in C57BL/6 mice. The strain is used in animal testing. The medium was prepared using Müller-Hinton broth (MH, Difco Inc., Sparks, MD, USA) [w/7% differentiation medium (Sigma CO., LTD., St. Louis, USA), 0.4% isovitalex (BBL Inc., Sparks, MD, USA)]. An antibiotic susceptibility testing was performed using the microdilution method according to the CLSI guideline. Two-fold serial dilution was performed in 12 steps in a 48-well plate with the highest concentration of 128 µg/mL for amocixillin and clarithromycin and 256 µg/mL for omeprazole. The bacteria were inoculated into wells containing only medium without antibiotics to prepare the positive control group, and the wells containing only medium without antibiotics or inoculated bacteria were used as the negative control group. The concentration range of the test substances, zastaprazan (JP-1366) and fexuprazan, was determined through preliminary experiments. […] The lowest concentration at which no bacterial growth was observed was determined as the MIC. […] The lowest concentration at which no bacteria growth occurred was determined as the MBC. […] All tests were performed in duplicate, and the results were determined by conducting the experiments in triplicate.

Structure (SMILES)	Number of healed subjects, (%) ([1]; full analysis set (FAS), week 4, 40 mg once a day, 25 subjects)	Healing rate, (%) ([2]; H. pylori-negative group, week 8, 40 mg once a day, N=41)	overall healing rate, number of subjects whose mucosal breaks were completely healed ([2]; week 4, 40 mg once a day, of 49 people) [people]	MBC [3]	Number of healed subjects, (%) ([1]; full analysis set (FAS), week 4, 20 mg once a day, 28 subjects)	Number of healed subjects, (%) ([1]; per protocol set (PPS), week 4, 20 mg once a day, 26 subjects)	Healing rate, (%) ([2]; H. pylori-negative group, week 4, 10 mg once a day, N=41)	Healing rate, (%) ([2]; H. pylori-negative group, week 4, 20 mg once a day, N=42)	Healing rate, (%) ([2]; H. pylori-negative group, week 8, 10 mg once a day, N=41)	Healing rate, (%) ([2]; H. pylori-negative group, week 8, 20 mg once a day, N=42)	overall healing rate, proportion of subjects whose mucosal breaks were completely healed ([2]; week 4, 10 mg once a day, 48 people) [%]	overall healing rate, number of subjects whose mucosal breaks were completely healed ([2]; week 4, 10 mg once a day, of 48 people) [people]	overall healing rate, proportion of subjects whose mucosal breaks were completely healed ([2]; week 4, 20 mg once a day, 47 people) [%]	overall healing rate, number of subjects whose mucosal breaks were completely healed ([2]; week 4, 20 mg once a day, of 47 people) [people]	Healing rate, (%) ([2]; H. pylori-positive group, week 4, 10 mg once a day, N=7)	Healing rate, (%) ([2]; H. pylori-positive group, week 4, 20 mg once a day, N=5, citrate salt)	Healing rate, (%) ([2]; H. pylori-positive group, week 8, 10 mg once a day, N=7)	Healing rate, (%) ([2]; H. pylori-positive group, week 8, 20 mg once a day, N=5, citrate salt)
COc1ccc2nc([S@@+]([O-])Cc3ncc(C)c(OC)c3C)[nH]c2c1 [Esomeprazole, Esomeprazole magnesium trihydrate, reference compound]	80.00	97.56	44	–	–	–	–	–	–	–	–	–	–	–	–	–	–	–
Cc1cccc(C)c1CNc1cc(C(=O)N2CCC2)cn2c(C)c(C)nc12.O=C(O)CC(O)(CC(=O)O)C(=O)O [JP-1366, azetidin-1-yl{8-[(2,6-dimethylbenzyl)amino]-2,3-dimethylimidazo[1,2-a]pyridin-6-yl}methanone citrate salt]	–	–	–	16~323	96.43	100.00	95.12	90.48	97.56	97.62	93.75	45	91.49	43	85.71	100	100.00	100
